Measured values as given in patent US9133260B2 (priority 2005, dated 2015).
Entries after “also recorded” stand apart in the source; their conditions may differ. Read-outs that look alike come from different tables or passages of the source. Ends that are not written are not given here.

Experiments:
[1] = cited from earlier work; for inhibition of gastric emptying, in words: at doses of 100 μg; for EC(50) inhibition of gastric emptying: subcutaneous, conscious rats, rat weight ~200 g
[2] = format: in vivo, NIH/Swiss mice; conditions: for acute food intake, in words: IP at t=0, 30, 60, 120 min
Procedure: Peptide was injected IP at t=0.
Peptide was injected IP at t=0. […] Peptide was injected IP at t=0.

[3] = target: cardiomyocyte Gs-coupled receptors; test: cAMP production in isolated neonatal cardiomyocytes (HTRF); format: cell-based, rat
Procedure: Activation of cardiomyocyte Gs- and Gi-coupled receptors was determined as a measure of cAMP production.
Cell Isolation. Neonatal cardiomyocytes were isolated using a commercially available system. […] Sprague Dawley neonatal rats (1-2 days old) were decapitated and the beating heart dissected out into digestion buffer (Cellutron D1 buffer) to dissociate cells. […] The resuspended cells incubated in buffer (Cellutron D3 buffer) for sufficient time to allow optimal dispersion and minimize the need for pipetting to break up clumps. Cells released from the first 2 digestions were discarded since a significant portion of these is red blood cells. Resuspended cells were filtered and allowed to pre-plate for 1 hour on plastic in an incubator in NS media (Cellutron, NJ) in order to remove fibroblasts. After 1 hour of pre-plating, floating cells are removed and the flask rinsed with NS media. The floating cells and the cells in the rinse media were combined and counted. Residual red blood cells, which are smaller that the cardiac myocytes, were not counted.
Cell Plating. […] At Day 1, the NS media was replaced with fresh NS media.
cAMP Assay. […] Dose response was determined.
For Gs assays the positive control was 10 uM forskolin and negative control was buffer. For Gi assays the positive control was buffer and the negative control was 10 uM forskolin.

[4] = Circulatory system effects in conscious rats by telemetry; format: in vivo; conditions: 80 nmol/kg intravenous
Procedure: The experiments were performed during the light cycle. Telemetry allows for real-time hemodynamic readings including arterial blood pressure, heart rate and arterial dP/dt, via an implanted radio transmitter in conscious, non-anesthetized, unrestrained rats. […] Remote intravenous dosing was achieved through in-dwelling vascular access ports (Access Technologies (Skokie, Ill.). The port is secured to the underlying muscle just below the skin between the scapulae. The catheter resides in the jugular vein. Data were collected for up to 60 minutes following injection.

[5] = Intravenous glucose tolerance test (IVGTT assay); format: in vivo, rats; conditions: 100 pmol/kg/min infusion; for insulinotropic response to an intravenous glucose challenge: anesthetized HSD male rats
Procedure: All three analogs produced a significant lowering of the glucose excursion in response to the glucose challenge (data not shown). As described, fed, isoflurane anesthetized HSD male rats were intubated and cannulated via femoral artery and vein and allowed to stabilize for 1 hour. […] At t=0, an i.v. bolus of 5.7 mmol/kg D-glucose was administered over 2 minutes. Samples for glucose measurement and insulin concentrations were taken at various time points before and after (0 to 90 minutes) glucose infusion.

[6] = Basal glucose lowering in 2-hour fasted NIH/Swiss mice; format: in vivo; conditions: for basal glucose lowering (% maximal decrease): mouse, in vivo
Procedure: (§1) In FIG. 3A, bars represent mean±sd, n=6-10. Peptide was injected IP at t=−5 into overnight-fasted NIH/Swiss mice. Gavage (1.5 g/kg) was given at t=0. Sample was taken at t=30 min. […] In FIG. 3B, points represent mean±sem, n=8-15. Peptide was injected IP at t=0 immediately following baseline sample into 2-hour fasted NIH/Swiss mice. Samples were taken at t=60, 120, and 180 minutes. […] Compound G has both an N-terminal modification providing DPP-IV resitance and a C-terminal Trp-cage shield.
Points represent mean±sem. Peptide was injected IP at t=0 immediately following baseline sample into 2-hour fasted NIH/Swiss mice. Samples were taken at t=60, 120, 180 and 240 minutes.
FIGS. 8A and 8b provide a result of one such study. Points represent mean±sem. Peptide was injected IP at t=0 immediately following baseline sample into 2-hour fasted NIH/Swiss mice. Samples were taken at t=60, 120, 180 and 240 minutes.

[7] = Body weight in diet-induced-obesity (DIO) mice; format: in vivo, C57BL/6 mice; conditions: for body weight change in diet-induced-obese mice: infused via osmotic pump for 2 weeks
[8] = Glucose lowering in diabetic db/db mice; format: in vivo; conditions: IP; GIP at a 10 fold higher dose
Procedure: Peptide was injected IP at t=0 immediately following baseline sample into 2-hour fasted db/db mice.

[9] = Oral glucose tolerance test (OGTT); format: in vivo, NIH/Swiss mice; conditions: decrease in the OGTT assay
Procedure: as §1
In FIG. 13B bars represent mean+/−sd. Peptide was injected IP at t=−5 minutes into 4-hour fasted NIH/Swiss female mice. Gavage (1.5 g/kg) was given at t=0. […] In FIG. 17 points represent mean+/−sem. Peptide was injected IP at t=) immediatley following baseline sample into 2-hour fasted NIH/Swiss mice. Samples were taken at t=60, t=120 and t=180. […] In one embodiment for each of these GIP hybrids a Gly linker is used, e.g. GlyGlyGly.

relevant receptors = test: Cyclase, table of GIP/amylin-sCT hybrids; format: biochemical; conditions: receptor and unit inferred

insulin: insulin (tested with plasma glucose maintained constant)
inhibition of gastric emptying, in words [1]: weakly active or inactive

DY(SO3) MGWMDF-NH2 [CCK-8]
EC(50) inhibition of gastric emptying [1]: 2.93 µg
60 min ED50 ([2]; mouse, in vivo): 26 nmol/kg

adrenomedullin: amylin family peptide hormone adrenomedullin (YRQSMNNFQGLRSFGCRFGTCTVQKLAHQIYQFTDKDKDNVAPRSKISPQGY; ends and bridges not checked; cysteine pairing not given here; UniProt P35318 95-146, looked up)
inhibition of gastric emptying, in words [1]: weakly active or inactive

YaEGTFISDYSIAMDKIHQQDFVNWLLAQKPSSGAPPPS-NH2 [Compound 0601GIP3794]
EC50 ([3]; experiment of FIGS. 18A/18B, read-out: EC50, cAMP production in cardiomyocytes): 0.0117 µM
EC50 ([3]; from three independent experiments, read-out: EC50, cardiomyocyte Gs-coupled receptor activation): 0.0298 µM
dP/dt [4]: increased dP/dt similarly
heart rate [4]: transient relative to GIP
mean arterial pressure [4]: decreased mean arterial pressure
systolic and diastolic pressures [4]: sustained lowering of systolic and diastolic pressures
insulin levels prior to the glucose challenge [5]: significant rise in insulin levels
insulinotropic response to an intravenous glucose challenge [5]: significant enhancement of the insulinotropic response
glucose lowering in normal NIH/Swiss mice, in words ([6]; IP, samples 60-240 min, listed as Compound G): significantly more efficacious than full length GIP; also recorded: gradually increasing activity that peaks at t=120 min
basal glucose lowering (% maximal decrease) [6]: −20%
body weight change in diet-induced-obese mice [7]: without a concomitant reduction in body weight
body composition ([7]; mouse, in vivo): slight decrease in percentage body fat with an increase in body protein
glucose lowering in diabetic db/db mice, in words [8]: pronounced and long-acting effect in lowering glucose
acute food intake, in words [2]: did not acutely inhibit food intake
OGTT response [9]: −21%

HAEGTFTSDVSSYLEGQAAKEFIAWLVKGR-NH2 [GLP-1]
cAMP activity in cardiomyocytes, in words [3]: very low to no significant activity
EC(50) inhibition of gastric emptying [1]: 1.82 µg

PACAP38: pituitary adenylate cyclase activating peptide (PACAP38) (HSDGIFTDSYSRYRKQMAVKKYLAAVLGKRYKQRVKNK-NH2; ends and bridges not checked; UniProt P18509 132-169, looked up)
inhibition of gastric emptying, in words [1]: weakly active or inactive

KCNTATCATQRLANFLVRSSNNLGPVLPPTNVGSNTY-NH2 [Rat Amylin]
EC(50) inhibition of gastric emptying [1]: 0.18 µg
acute food intake, in words [2]: significant decrease in food intake within 30 min
60 min ED50 ([2]; mouse food intake at 60 min): 9 nmol/kg

YAEGTFISDYSIAMDKIHQQDFVNWLLAQKGKKNDWKHNITQ-OH [GIP]
dP/dt [4]: increased dP/dt similarly
heart rate [4]: chronotropic (heart rate elevating) effect
mean arterial pressure [4]: had no effect
insulin levels prior to the glucose challenge [5]: significant rise in insulin levels
insulinotropic response to an intravenous glucose challenge [5]: significant enhancement of the insulinotropic response
body weight change in diet-induced-obese mice [7]: had no effect on body weight change
inhibition of gastric emptying, in words [1]: weakly active or inactive
glucose lowering in diabetic db/db mice, in words [8]: modest and wanes over time
acute food intake, in words [2]: did not acutely inhibit food intake
OGTT response [9]: −10%

CSNLSTCVLGKLSQELHKLQTYPRTNTGSGTP [Salmon calcitonin]
EC(50) inhibition of gastric emptying [1]: 0.19 µg

glucagon: peptide hormone glucagon
inhibition of gastric emptying, in words [1]: weakly active or inactive

KCNTATCATQRLANFLVHSSNNFGAILSSTNVGSNTY [Human amylin]
EC(50) inhibition of gastric emptying [1]: 0.15 µg

YAEGTFISDYSIAMDKIHQQDFVNWLLAQKPSSGAPPPS [Compound 1]
EC50 (relevant receptors): 0.519 µM

Secretin: gut peptide hormone secretin
EC(50) inhibition of gastric emptying [1]: 1.87 µg

Gastrin releasing peptide: gastrin releasing peptide (VPLPAGGGTVLTKMYPRGNHWAVGHLM-NH2; ends and bridges not checked; UniProt P07492 24-50, looked up)
EC(50) inhibition of gastric emptying [1]: 28.5 µg

Rat calcitonin: rat calcitonin, peptide compared for inhibition of gastric emptying (CGNLSTCMLGTYTQDLNKFHTFPQTSIGVGAP; ends and bridges not checked; cysteine pairing not given here; UniProt P01257 85-116, looked up)
EC(50) inhibition of gastric emptying [1]: 0.64 µg

Y(D-Ala)EGTFISDYSIAMDKIHQQDFVNWLLAQKGKKNDWKHNITQ-OH [Compound 0601GIP4042]
insulinotropic response to an intravenous glucose challenge [5]: significant enhancement of the insulinotropic response
basal glucose lowering (% maximal decrease) [6]: −11%

HGEGAFTSDLSKQLEEEAVRLFIEFLKN-NH2 [Exendin-4 (1-28) [Ala5, Leu14, Phe25]]
60 min ED50 ([2]; mouse food intake at 60 min): 13 nmol/kg

vasoactive intestinal peptide: vasoactive intestinal peptide (VIP) (HSDAVFTDNYTRLRKQMAVKKYLNSILN; ends and bridges not checked; UniProt P01282 125-152, looked up)
inhibition of gastric emptying, in words [1]: weakly active or inactive

neuropeptide Y: neuropeptide Y
inhibition of gastric emptying, in words [1]: weakly active or inactive

Rat CGRP: rat calcitonin gene related peptide (SCNTATCVTHRLAGLLSRSGGVVKDNFVPTNVGSEAF; ends and bridges not checked; cysteine pairing not given here; UniProt P01256 83-119, looked up)
EC(50) inhibition of gastric emptying [1]: 1.62 µg
